Data taken from PubChem BioAssay (NCI).
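Cultured in 96-well plates, cells were exposed to test compound for 48 hours across five concentrations. TGI is the concentration that stops growth completely.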

Legend:
Test in all cases: growth of human tumour cells (NCI), 48 h
786-0 renal = system: 786-0 renal
A498 renal = system: A498 renal
A549 NSCLC = system: A549 NSCLC
ACHN renal = system: ACHN renal
BT-549 breast = system: BT-549 breast
CAKI-1 renal = system: CAKI-1 renal
CCRF-CEM leukemia = system: CCRF-CEM leukemia
COLO 205 colon = system: COLO 205 colon
DU-145 prostate = system: DU-145 prostate
EKVX NSCLC = system: EKVX NSCLC
HCC-2998 colon = system: HCC-2998 colon
HCT-116 colon = system: HCT-116 colon
HCT-15 colon = system: HCT-15 colon
HL-60(TB) leukemia = system: HL-60(TB) leukemia
HOP-62 NSCLC = system: HOP-62 NSCLC
HOP-92 NSCLC = system: HOP-92 NSCLC
HS 578T breast = system: HS 578T breast
HT29 colon = system: HT29 colon
IGROV1 ovarian = system: IGROV1 ovarian
K-562 leukemia = system: K-562 leukemia
KM12 colon = system: KM12 colon
LOX IMVI melanoma = system: LOX IMVI melanoma
M14 melanoma = system: M14 melanoma
MALME-3M melanoma = system: MALME-3M melanoma
MCF7 breast = system: MCF7 breast
MDA-MB-231 breast = system: MDA-MB-231 breast
MDA-MB-435 = system: MDA-MB-435
MDA-N = system: MDA-N
MOLT-4 leukemia = system: MOLT-4 leukemia
NCI-H226 lung = system: NCI-H226 lung
NCI-H23 lung = system: NCI-H23 lung
NCI-H460 lung = system: NCI-H460 lung
NCI-H522 lung = system: NCI-H522 lung
NCI/ADR-RES ovarian = system: NCI/ADR-RES ovarian
OVCAR-3 ovarian = system: OVCAR-3 ovarian
OVCAR-4 ovarian = system: OVCAR-4 ovarian
OVCAR-5 ovarian = system: OVCAR-5 ovarian
OVCAR-8 ovarian = system: OVCAR-8 ovarian
PC-3 prostate = system: PC-3 prostate
RPMI-8226 leukemia = system: RPMI-8226 leukemia
RXF 393 renal = system: RXF 393 renal
SF-268 CNS = system: SF-268 CNS
SF-295 CNS = system: SF-295 CNS
SF-539 CNS = system: SF-539 CNS
SK-MEL-2 melanoma = system: SK-MEL-2 melanoma
SK-MEL-28 melanoma = system: SK-MEL-28 melanoma
SK-MEL-5 melanoma = system: SK-MEL-5 melanoma
SK-OV-3 ovarian = system: SK-OV-3 ovarian
SN12C renal = system: SN12C renal
SNB-19 CNS = system: SNB-19 CNS
SNB-75 CNS = system: SNB-75 CNS
SR leukemia = system: SR leukemia
SW-620 colon = system: SW-620 colon
T-47D breast = system: T-47D breast
TK-10 renal = system: TK-10 renal
U251 CNS = system: U251 CNS
UACC-257 melanoma = system: UACC-257 melanoma
UACC-62 melanoma = system: UACC-62 melanoma
UO-31 renal = system: UO-31 renal

Question: What does the source list for `O=[N+]([O-])c1ccc(Cl)c(C=NC23CC4CC(CC(C4)C2)C3)c1`?
Answer: TGI (786-0 renal): > 10 µM; TGI (A498 renal): > 10 µM; TGI (A549 NSCLC): > 10 µM; TGI (ACHN renal): > 10 µM; TGI (BT-549 breast): > 10 µM; TGI (CAKI-1 renal): > 10 µM; TGI (CCRF-CEM leukemia): > 10 µM; TGI (COLO 205 colon): > 10 µM; TGI (DU-145 prostate): > 10 µM; TGI (EKVX NSCLC): > 10 µM; TGI (HCC-2998 colon): > 10 µM; TGI (HCT-116 colon): > 10 µM; TGI (HCT-15 colon): > 10 µM; TGI (HL-60(TB) leukemia): 4.46 µM; TGI (HOP-62 NSCLC): > 10 µM; TGI (HOP-92 NSCLC): > 10 µM; TGI (HS 578T breast): > 10 µM; TGI (HT29 colon): > 10 µM; TGI (IGROV1 ovarian): > 10 µM; TGI (K-562 leukemia): > 10 µM; TGI (KM12 colon): > 10 µM; TGI (LOX IMVI melanoma): > 10 µM; TGI (M14 melanoma): > 10 µM; TGI (MALME-3M melanoma): > 10 µM; TGI (MCF7 breast): > 10 µM; TGI (MDA-MB-231 breast): > 10 µM; TGI (MDA-MB-435): > 10 µM; TGI (MDA-N): > 10 µM; TGI (MOLT-4 leukemia): > 10 µM; TGI (NCI-H226 lung): > 10 µM; TGI (NCI-H23 lung): > 10 µM; TGI (NCI-H460 lung): > 10 µM; TGI (NCI-H522 lung): > 10 µM; TGI (NCI/ADR-RES ovarian): > 10 µM; TGI (OVCAR-3 ovarian): > 10 µM; TGI (OVCAR-4 ovarian): > 10 µM; TGI (OVCAR-5 ovarian): > 10 µM; TGI (OVCAR-8 ovarian): > 7.79 µM; TGI (PC-3 prostate): > 10 µM; TGI (RPMI-8226 leukemia): > 10 µM; TGI (RXF 393 renal): > 10 µM; TGI (SF-268 CNS): > 10 µM; TGI (SF-295 CNS): > 10 µM; TGI (SF-539 CNS): 9.9 µM; TGI (SK-MEL-2 melanoma): > 10 µM; TGI (SK-MEL-28 melanoma): > 10 µM; TGI (SK-MEL-5 melanoma): > 10 µM; TGI (SK-OV-3 ovarian): > 10 µM; TGI (SN12C renal): > 10 µM; TGI (SNB-19 CNS): > 10 µM; TGI (SNB-75 CNS): > 10 µM; TGI (SR leukemia): > 10 µM; TGI (SW-620 colon): > 10 µM; TGI (T-47D breast): > 10 µM; TGI (TK-10 renal): > 10 µM; TGI (U251 CNS): > 10 µM; TGI (UACC-257 melanoma): > 10 µM; TGI (UACC-62 melanoma): > 10 µM; TGI (UO-31 renal): > 10 µM
